Reference: patent US6358736B1, “Method for increasing the antigen presenting ability of leukemia cells” (The United States of America as represented by the …, priority 1995, dated 2002)
Entries after “also recorded” stand apart in the source; their conditions may differ.

Columns and labels:
[1] = test system: HL-60 cells; test: FACS analysis of cell surface markers on HL-60 cells; assay type: cell-based, human
Procedure: Calcium was removed from cultured cells by two methods.
The second method involved washing the cells extensively in calcium-free RPMI medium, and culturing them in the same calcium-free medium supplemented with serum that had been dialyzed against calcium-free phosphate-buffered saline.
The calmodulin kinase inhibitors KN-62 (20 uM) or KT-5926 (1 uM) was added to HL-60 cells in the presence of 188 ng/ml A23187. Twenty four hours later the level of CD80 was analyzed.
Thapsigargin was added to cultured human peripheral blood monocytes and HL-60 cells in concentrations ranging from 0 to 1000 nM. Cells were harvested 24 hours later and evaluated for the acquisition of ADC immunophenotypic characteristics by FACS analysis.
Cells were harvested after three days, irradiated (3000R), then FACS analyzed or cocultured in graded numbers with freshly prepared naive (CD45RO negative) T lymphocytes. Allosensitization was assessed by pulsing at day 4 with ^3H-TdR and harvesting 18 hours later.

[2] = test system: human peripheral blood monocytes; test: FACS analysis of cell surface markers on cultured peripheral blood monocytes; assay type: cell-based; conditions: for effect of agent on ionophore-induced activated myeloid dendritic cell phenotype: added to calcium ionophore treatment
[3] = test system: HL-60 cells; test: FACS analysis of cell surface markers on HL-60 cells; assay type: cell-based, human; remark: listed apart in the source
[4] = test system: WEHI-3; test: Costimulatory molecule expression on mouse myeloid leukemia line; assay type: cell-based; conditions: following calcium mobilization
Description: Myeloid leukemia cell lines display marked upregulation of molecules linked to antigen-presentation and acquire increased T cell sensitizing capacity following calcium mobilization with either calcium ionophore or thapsigargin.

[5] = test system: monocytes; test: Calcium-chelation luminescence spectrophotometry of intracellular calcium flux; assay type: cell-based, human; conditions: indol-loaded monocytes; calcium ionophore 180-750 ng/ml
Procedure: Calcium-chelation luminescence spectrophotometry was utilized to measure intracellular calcium fluxes in monocytes. Monoytes were incubated with 5 uM/ml indol, a calcium chelating agent which emits fluorescence at different wavelengths (405 or 480 nm) depending on whether or not it is bound to cycloplasmic calcium. Increased calcium mobilization causes relative shifts in emission from one wavelength to the other. After 30 minute incubation with indol, monocytes were washed, pulsed with a variety of agents such as calcium ionophore, virus, f-MET-LEU-PHE, or LPS. To measure calcium fluxes at subsequent time intervals, cells were stimulated with a 355 nm wavelength beam, and fluorescence emission measured at 405 and 480 nm.

O=C(O)CN(CCN(CC(=O)O)CC(=O)O)CC(=O)O [EDTA]
suppression of ionophore-induced CD80/CD86 ([1]; 0.25 uM EDTA): suppressive effects rapidly diminished
suppression of ionophore-induced CD80/CD86 ([1]; 0.5 uM EDTA): Almost identical suppression
diminution of ionophore-induced CD86 levels ([1]; 1 uM EDTA): more than 85%
suppression of ionophore-induced CD80 upregulation ([1]; 1 uM EDTA): 100%

NCCCCCCNS(=O)(=O)c1cccc2c(Cl)cccc12 [W-7]
effect of agent on ionophore-induced activated myeloid dendritic cell phenotype [2]: inhibited at least some of the ionophore's effects
inhibition of ionophore-induced CD80 expression ([3]; W-7 50 uM (optimal), A23187 188 ng/ml, 24 hours): over 75%

C/C=C(/C)C(=O)O[C@H]1C(C)=C2[C@H]([C@@H]1OC(=O)CCCCCCC)[C@@](C)(OC(C)=O)C[C@H](OC(=O)CCC)[C@@]1(O)[C@H]2OC(=O)[C@@]1(C)O [thapsigargin]
costimulatory molecule expression [4]: markedly increased costimulatory molecule expression
upregulation of CD80, CD86, CD40, HLA-DR, HLA-ABC, ICAM-1 and CD83 as magnitude of that with optimal (750 ng/ml) A23187 ([2]; thapsigargin 750 nM, 24 hours): about 50%
CD14 downregulation, effectiveness relative to ionophore ([2]; thapsigargin, 24 hours): about 75%
dose giving optimal response ([1]; 24 hours, range 0 to 1000 nM): 250 nM
levels of CD80, CD86 and ICAM-1 relative to those observed with ionophore ([1]; thapsigargin 250 nM, 24 hours): 50-75%
expression of CD83, ICAM-1, B7.1 and B7.2 ([3]; optimal doses, within 20 hours): uniform de novo expression of CD83, ICAM-1, B7.1, and B7.2

f-MET-LEU-PHE
induction of activated myeloid dendritic cell phenotype (CD80 and CD83 expression) ([2]; 20-40 hours, wide dose range, alone or in combination): do not induce monocytes to express the phenotype of activated myeloid dendritic cells; also recorded: does not induce that phenotype
intracellular calcium flux / mobilization [5]: only a brief calcium flux of much lower magnitude

rhGM-CSF: recombinant human GM-CSF
effect of agent on ionophore-induced activated myeloid dendritic cell phenotype [2]: enhanced CD14 downregulation and upregulation of costimulatory, MHC, and other molecule expression
effect on HL-60 phenotype ([3]; rhGM-CSF alone): little effect alone

trifluoperazine dimaleate [TpD]
effect on CD40, HLA-DR and HLA-ABC ([2]; TpD): significant suppressive effects
inhibition of CD80 ([2]; TpD 10 uM (optimal)): over 50%
inhibition of CD86 ([2]; TpD 10 uM (optimal)): over 50%
effect of agent on ionophore-induced activated myeloid dendritic cell phenotype [2]: inhibited at least some of the ionophore's effects
inhibition of ionophore-induced up-regulation of CD80 ([3]; TpD 10 uM (optimal), A23187 188 ng/ml, 24 hours): over 90%

B1: rhIFN-gamma: recombinant human interferon gamma (protein, UniProt P01579 24-161, looked up)
Interferon gamma: QDPYVKEAENLKKYFNAGHSDVADNGTLFLGILKNWKEESDRKIMQSQIVSFYFKLFKNFKDDQSIQKSVETIKEDMNVKFFNSNKKKRDDFEKLTNYSVTDLNVQRKAIHELIQVMAELSPAAKTGKRKRSQMLFRG
effect of agent on ionophore-induced activated myeloid dendritic cell phenotype [2]: enhanced CD14 downregulation and upregulation of costimulatory, MHC, and other molecule expression
HLA-DR expression ([1]; agent alone): induces HLA-DR expression
